Measurements as given in PubChem BioAssay AID1259407 (Chemical Carcinogenesis Research Information System (CCRIS), 2018).
Active and inactive are the calls of the source. The rule behind the calls is not given here.

Test system: CCRIS mutagenicity, Ames/micronucleus/aberration tests
Experiment: CCRIS mutagenicity studies
[1] = Test System: AMES SALMONELLA TYPHIMURIUM, Strain/Indicator: TA98, Metabolic Activation: NONE, Method: PREINCUBATION
[2] = Test System: AMES SALMONELLA TYPHIMURIUM, Strain/Indicator: TA98, Metabolic Activation: NONE, Method: STANDARD PLATE
[3] = Test System: AMES SALMONELLA TYPHIMURIUM, Strain/Indicator: TA100, Metabolic Activation: NONE, Method: PREINCUBATION
[4] = Test System: AMES SALMONELLA TYPHIMURIUM, Strain/Indicator: TA100, Metabolic Activation: NONE, Method: STANDARD PLATE
[5] = Test System: AMES SALMONELLA TYPHIMURIUM, Strain/Indicator: TA1535, Metabolic Activation: NONE, Method: STANDARD PLATE
[6] = Test System: AMES SALMONELLA TYPHIMURIUM, Strain/Indicator: TA1537, Metabolic Activation: NONE, Method: STANDARD PLATE
[7] = Test System: AMES SALMONELLA TYPHIMURIUM, Strain/Indicator: TA1538, Metabolic Activation: NONE, Method: STANDARD PLATE
[8] = Test System: AMES SALMONELLA TYPHIMURIUM, Strain/Indicator: TA100, Metabolic Activation: RAT, LIVER, S-9, AROCLOR 1254, Method: STANDARD PLATE

With `C[Si](C)(Cl)Cl` the mutagenic call (Test System: AMES SALMONELLA TYPHIMURIUM, Strain/Indicator: TA98, Metabolic Activation: HAMSTER, LIVER, S-9, AROCLOR 1254, Method: PREINCUBATION) was “inactive; negative”, the mutagenic call [1] was “inactive; negative” and the mutagenic call [2] was “inactive; negative”. The mutagenic call (Test System: AMES SALMONELLA TYPHIMURIUM, Strain/Indicator: TA98, Metabolic Activation: RAT LIVER S-9, AROCLOR 1254, Method: STANDARD PLATE) was “inactive; negative”, the mutagenic call (Test System: AMES SALMONELLA TYPHIMURIUM, Strain/Indicator: TA98, Metabolic Activation: RAT, LIVER, S-9, AROCLOR 1254, Method: PREINCUBATION) was “inactive; negative” and the mutagenic call (Test System: AMES SALMONELLA TYPHIMURIUM, Strain/Indicator: TA100, Metabolic Activation: HAMSTER, LIVER, S-9, AROCLOR 1254, Method: PREINCUBATION) was “inactive; negative”. The mutagenic call [3] was “inactive; negative”, the mutagenic call [4] was “inactive; negative” and the mutagenic call (Test System: AMES SALMONELLA TYPHIMURIUM, Strain/Indicator: TA100, Metabolic Activation: RAT LIVER S-9, AROCLOR 1254, Method: STANDARD PLATE) was “inactive; negative”. For the same molecule, the mutagenic call (Test System: AMES SALMONELLA TYPHIMURIUM, Strain/Indicator: TA100, Metabolic Activation: RAT, LIVER, S-9, AROCLOR 1254, Method: PREINCUBATION) was “inactive; negative”, the mutagenic call (Test System: AMES SALMONELLA TYPHIMURIUM, Strain/Indicator: TA1535, Metabolic Activation: HAMSTER, LIVER, S-9, AROCLOR 1254, Method: PREINCUBATION) was “inactive; negative” and the mutagenic call (Test System: AMES SALMONELLA TYPHIMURIUM, Strain/Indicator: TA1535, Metabolic Activation: NONE, Method: PREINCUBATION) was “inactive; negative”. The mutagenic call [5] was “inactive; negative”, the mutagenic call (Test System: AMES SALMONELLA TYPHIMURIUM, Strain/Indicator: TA1535, Metabolic Activation: RAT LIVER S-9, AROCLOR 1254, Method: STANDARD PLATE) was “inactive; negative” and the mutagenic call (Test System: AMES SALMONELLA TYPHIMURIUM, Strain/Indicator: TA1535, Metabolic Activation: RAT, LIVER, S-9, AROCLOR 1254, Method: PREINCUBATION) was “inactive; negative”. For the same molecule, the mutagenic call (Test System: AMES SALMONELLA TYPHIMURIUM, Strain/Indicator: TA1537, Metabolic Activation: HAMSTER, LIVER, S-9, AROCLOR 1254, Method: PREINCUBATION) was “inactive; negative”, the mutagenic call (Test System: AMES SALMONELLA TYPHIMURIUM, Strain/Indicator: TA1537, Metabolic Activation: NONE, Method: PREINCUBATION) was “inactive; negative” and the mutagenic call [6] was “inactive; negative”. For the same molecule, the mutagenic call (Test System: AMES SALMONELLA TYPHIMURIUM, Strain/Indicator: TA1537, Metabolic Activation: RAT LIVER S-9, AROCLOR 1254, Method: STANDARD PLATE) was “inactive; negative”, the mutagenic call (Test System: AMES SALMONELLA TYPHIMURIUM, Strain/Indicator: TA1537, Metabolic Activation: RAT, LIVER, S-9, AROCLOR 1254, Method: PREINCUBATION) was “inactive; negative” and the mutagenic call (Test System: AMES SALMONELLA TYPHIMURIUM, Strain/Indicator: TA1538, Metabolic Activation: HAMSTER, LIVER, S-9, AROCLOR 1254, Method: PREINCUBATION) was “inactive; negative”. For the same molecule, the mutagenic call (Test System: AMES SALMONELLA TYPHIMURIUM, Strain/Indicator: TA1538, Metabolic Activation: NONE, Method: PREINCUBATION) was “inactive; negative”, the mutagenic call [7] was “inactive; negative” and the mutagenic call (Test System: AMES SALMONELLA TYPHIMURIUM, Strain/Indicator: TA1538, Metabolic Activation: RAT LIVER S-9, AROCLOR 1254, Method: STANDARD PLATE) was “inactive; negative”. The mutagenic call (Test System: AMES SALMONELLA TYPHIMURIUM, Strain/Indicator: TA1538, Metabolic Activation: RAT, LIVER, S-9, AROCLOR 1254, Method: PREINCUBATION) was “inactive; negative”, the mutagenic call (Test System: E. COLI, Strain/Indicator: P3078(POL A-), Metabolic Activation: NONE, Method: SPOT TEST) was “inactive; negative” and the mutagenic call (Test System: E. COLI, Strain/Indicator: P3078 POLA, Metabolic Activation: RAT LIVER S-9, AROCLOR 1254, Method: SPOT TEST) was “inactive; negative”. For the same molecule, the mutagenic call (Test System: E. COLI, Strain/Indicator: W3110, Metabolic Activation: NONE, Method: SPOT TEST) was “inactive; negative”, the mutagenic call (Test System: E. COLI, Strain/Indicator: W3110, Metabolic Activation: RAT LIVER S-9, AROCLOR 1254, Method: SPOT TEST) was “inactive; negative” and the mutagenic call (Test System: MOUSE LYMPHOMA, Strain/Indicator: L5178Y (TK+/TK-), Metabolic Activation: RAT, LIVER, S-9, AROCLOR 1254, Method: SUSPENSION/PLATE) was “inactive; negative. reevaluation of results: inconclusive”. The mutagenic call (Test System: MOUSE LYMPHOMA, Strain/Indicator: L5178Y (TK+/TK-), Metabolic Activation: RAT, LIVER, S-9, Method: SUSPENSION/PLATE) was “inactive; negative”.

In the case of `C[n+]1c2cc(N)ccc2cc2ccc(N)cc21` (tested in a mixture with another compound), the mutagenic call [2] is reported as “inactive; negative”, the mutagenic call (Test System: AMES SALMONELLA TYPHIMURIUM, Strain/Indicator: TA98, Metabolic Activation: RAT, LIVER, S-9, AROCLOR 1254, Method: STANDARD PLATE) is reported as “active; positive” and the mutagenic call [6] is reported as “inactive; negative”. The mutagenic call (Test System: AMES SALMONELLA TYPHIMURIUM, Strain/Indicator: TA1537, Metabolic Activation: RAT, LIVER, S-9, AROCLOR 1254, Method: STANDARD PLATE) was “active; positive”, the mutagenic call [7] was “inactive; negative” and the mutagenic call (Test System: AMES SALMONELLA TYPHIMURIUM, Strain/Indicator: TA1538, Metabolic Activation: RAT, LIVER, S-9, AROCLOR 1254, Method: STANDARD PLATE) was “active; positive”. The mutagenic call (Test System: CHINESE HAMSTER OVARY, Strain/Indicator: CHO-K1-BH4 (HGPRT), Metabolic Activation: RAT, LIVER, S-9, AROCLOR, Method: SUSPENSION/PLATE) was “active; positive”.

For `Fc1cccc2cc3c(cc12)-c1cccc2cccc-3c12`, the mutagenic call [8] was “active; positive”.

`c1cc2c3c(cccc3c1)-c1c-2c2ccccc2c2ccccc12` was tested, and the mutagenic call (Test System: HUMAN H1A1V2 CELLS, Strain/Indicator: TK LOCUS, Metabolic Activation: NONE, Method: SUSPENSION/PLATE) was “inactive; negative”.

For `O=S(=O)(O)OCc1c2ccccc2cc2c1ccc1ccccc12`, the mutagenic call [1] was “active; positive”.

With `FC(F)(F)C(F)(F)C(Cl)Cl` the mutagenic call [2] was “inactive; negative”, the mutagenic call (Test System: AMES SALMONELLA TYPHIMURIUM, Strain/Indicator: TA98, Metabolic Activation: RAT LIVER S-9, PHENOBARBITAL, 5,6-BENZOFLAVONE, Method: STANDARD PLATE) was “inactive; negative” and the mutagenic call [4] was “inactive; negative”. The mutagenic call (Test System: AMES SALMONELLA TYPHIMURIUM, Strain/Indicator: TA100, Metabolic Activation: RAT LIVER S-9, PHENOBARBITAL, 5,6-BENZOFLAVONE, Method: STANDARD PLATE) was “inactive; negative”, the mutagenic call [5] was “inactive; negative” and the mutagenic call (Test System: AMES SALMONELLA TYPHIMURIUM, Strain/Indicator: TA1535, Metabolic Activation: RAT LIVER S-9, PHENOBARBITAL, 5,6-BENZOFLAVONE, Method: STANDARD PLATE) was “inactive; negative”. The mutagenic call [6] was “inactive; negative”, the mutagenic call (Test System: AMES SALMONELLA TYPHIMURIUM, Strain/Indicator: TA1537, Metabolic Activation: RAT LIVER S-9, PHENOBARBITAL, 5,6-BENZOFLAVONE, Method: STANDARD PLATE) was “inactive; negative” and the mutagenic call (Test System: ESCHERICHIA COLI, Strain/Indicator: WP2 UVR A, Metabolic Activation: NONE, Method: STANDARD PLATE) was “inactive; negative”. The mutagenic call (Test System: ESCHERICHIA COLI, Strain/Indicator: WP2 UVR A, Metabolic Activation: RAT LIVER S-9, PHENOBARBITAL, 5,6-BENZOFLAVONE, Method: STANDARD PLATE) was “inactive; negative” and the mutagenic call (Test System: UDS RAT HEPATOCYTES IN VIVO, Strain/Indicator: THYMIDINE INCORPORATION, Metabolic Activation: NONE, Method: INHALATION (6HR, NOSE-ONLY, 2-OR 16-HR HARVEST)/AUTORADIOGRAPHY) was “inactive; negative”.

For `c1ccc(N=Nc2ccccc2)cc1`, the mutagenic call [3] was “inactive; negative”, the mutagenic call (Test System: AMES SALMONELLA TYPHIMURIUM, Strain/Indicator: TA100, Metabolic Activation: RAT, LIVER, MICROSOMES, AROCLOR 1254, Method: PREINCUBATION) was “active; positive” and the mutagenic call (Test System: AMES SALMONELLA TYPHIMURIUM, Strain/Indicator: TA100, Metabolic Activation: RAT, LIVER, MICROSOMES, AZOBENZENE, Method: PREINCUBATION) was “inactive; negative”. For the same molecule, the mutagenic call (Test System: AMES SALMONELLA TYPHIMURIUM, Strain/Indicator: TA100, Metabolic Activation: RAT, LIVER, MICROSOMES, Method: PREINCUBATION) was “inactive; negative”, the mutagenic call [8] was “active; positive” and the mutagenic call (Test System: AMES SALMONELLA TYPHIMURIUM, Strain/Indicator: TA100, Metabolic Activation: RAT, LIVER, S-9, POLYCHLORINATED BIPHENYLS, Method: PREINCUBATION) was “active; positive”.
